Experimental findings from patent publication US9663473B2 (Actelion Pharmaceuticals Ltd, priority 2013, dated 2017) are described below.

Counter-ions that a name gives are not always drawn.

In this assay the target is T1, recombinant human ALX receptor (Homo sapiens, UniProt P25090).
T1 construct: expressed in transfected cells; host or cells: HEK293 (HEK293-hALXR-Gα16)
T1 sequence (P25090 1-351): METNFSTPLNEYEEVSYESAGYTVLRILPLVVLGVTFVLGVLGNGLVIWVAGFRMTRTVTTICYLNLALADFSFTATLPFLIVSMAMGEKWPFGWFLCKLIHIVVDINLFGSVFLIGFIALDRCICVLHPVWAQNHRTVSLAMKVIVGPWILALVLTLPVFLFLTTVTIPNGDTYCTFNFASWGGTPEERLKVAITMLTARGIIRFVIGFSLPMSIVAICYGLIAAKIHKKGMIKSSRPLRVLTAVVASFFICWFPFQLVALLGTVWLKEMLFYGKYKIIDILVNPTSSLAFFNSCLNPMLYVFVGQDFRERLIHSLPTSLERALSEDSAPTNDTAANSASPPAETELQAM
Put plainly: Intracellular calcium measurements (FLIPR), ALX receptor agonistic activity. In kind it is cell-based. Conditions: HEK293-hALXR-Gα16 cells, Fluo-4 calcium signal, normalized to WKYMVm 10 nM. Put shortly: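 HEK293 cells co-expressing human ALX receptor and Gα16 were loaded with 1 μM Fluo-4 AM for 60 min at 37° C., then exposed to serially diluted compounds on FLIPR Tetra. Peak fluorescence above baseline (ex 488/em 540 nm) was normalized to 10 nM WKYMVm as high control.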
For orientation: Calcium assays in cells follow changes in intracellular calcium, usually with a dye or a luminescent sensor.
One may read the EC50 as the concentration giving half of the maximal effect. As to `COc1ccc(CC(NC(=O)NC23CCC(O)(CC2)CC3)c2nc3ccc(F)cc3[nH]2)cc1F` (single isomer, unassigned; ent-2) [Example 372, 1-(1-(6-Fluoro-1H-benzo[d]imidazol-2-yl)-2-(3-fluoro-4-methoxyphenyl)ethyl)-3-(4-hydroxybicyclo[2.2.2]octan-1-yl)urea (ent-2)], the EC50 was found to be 769 nM.

Regarding `COc1ccc(C[C@@H](NC(=O)NC2CCCN(CC(F)F)C2)c2nc3ccccc3[nH]2)cc1` (stereo partly drawn) [Example 186, 1-((R)-1-(1H-Benzo[d]imidazol-2-yl)-2-(4-methoxyphenyl)ethyl)-3-(-1-(2,2-difluoroethyl)piperidin-3-yl)urea], the EC50 worked out at 29 nM.

With `COc1ccc(C[C@@H](NC(=O)NC(c2ccccn2)C(F)(F)F)c2nc3ccccc3[nH]2)cc1` (stereo partly drawn) [Example 292, 1-((R)-1-(1H-Benzo[d]imidazol-2-yl)-2-(4-methoxyphenyl)ethyl)-3-(2,2,2-trifluoro-1-(pyridin-2-yl)ethyl)urea], the EC50 was 81 nM.

Regarding `COc1ccc(C[C@@H](NC(=O)N[C@H](C)c2cccc(OC)c2)c2nc3ccccc3[nH]2)cc1` [Example 332, 1-((R)-1-(1H-Benzo[d]imidazol-2-yl)-2-(4-methoxyphenyl)ethyl)-3-((R)-1-(3-methoxyphenyl)ethyl)urea], the EC50 came to 101 nM.

For the compound `COc1ccc(C[C@@H](NC(=O)NCC2CCNCC2)c2nc3ccccc3[nH]2)cc1` [Example 149, (R)-1-(1-(1H-Benzo[d]imidazol-2-yl)-2-(4-methoxyphenyl)ethyl)-3-(piperidin-4-ylmethyl)urea], the EC50 was determined as 168 nM.

In the case of `COc1ccc(C[C@@H](NC(=O)N[C@H]2CC[C@H](O)CC2)c2nc3cc([N+](=O)[O-])ccc3[nH]2)cc1` [Example 148, 1-(trans-4-Hydroxycyclohexyl)-3-((R)-2-(4-methoxyphenyl)-1-(5-nitro-1H-benzo[d]imidazol-2-yl)ethyl)urea], the 50% effective concentration (EC50) turned out to be 18 nM.

Consider `O=C(N[C@H](Cc1ccc(CF)cc1)c1nc2ccccc2[nH]1)N[C@H]1CC[C@H](O)CC1` [Example 364, 1-((R)-1-(1H-Benzo[d]imidazol-2-yl)-2-(4-(fluoromethyl)phenyl)ethyl)-3-(trans-4-hydroxycyclohexyl)urea], for which the EC50 was 10 nM.

For the compound `COc1ccc(C[C@@H](NC(=O)N[C@@H]2CNC[C@@H]2F)c2nc3ccccc3[nH]2)cc1` (relative stereo) [Example 185, 1-((R)-1-(1H-Benzo[d]imidazol-2-yl)-2-(4-methoxyphenyl)ethyl)-3-((3R*,4S*)-4-fluoropyrrolidin-3-yl)urea], the EC50 is 143 nM.

Regarding `COc1c(F)c(F)c(CC(NC(=O)N[C@H]2CC[C@H](O)CC2)c2nc3ccccc3[nH]2)c(F)c1F` (single isomer, unassigned; ent-1) [Example 312, 1-(1-(1H-Benzo[d]imidazol-2-yl)-2-(2,3,5,6-tetrafluoro-4-methoxyphenyl)ethyl)-3-(trans-4-hydroxycyclohexyl)urea (ent-1)], the EC50 came out at 22 nM.

With `O=C(N[C@H](Cc1ccc(Cl)cc1)c1nc2ccccc2[nH]1)N[C@H]1CC[C@H](O)CC1` [Example 123, 1-((R)-1-(1H-Benzo[d]imidazol-2-yl)-2-(4-chlorophenyl)ethyl)-3-(trans-4-hydroxycyclohexyl)urea], the EC50 is 44 nM.

Consider `CCOC(=O)[C@@H]1CCCC[C@H]1NC(=O)N[C@H](Cc1ccc(OC)cc1)c1nc2ccccc2[nH]1` (relative stereo) [Example 29, trans-Ethyl 2-(3-((R)-1-(1H-benzo[d]imidazol-2-yl)-2-(4-methoxyphenyl)ethyl)ureido)cyclohexanecarboxylate (ent-1)], for which the EC50 was found to be 56 nM.

As for `COc1ccc(CC(NC(=O)Nc2cc(C)nn2C)c2nc3ccccc3[nH]2)cc1` (centres unmarked) [Example 416, 1-(1-(1H-benzo[d]imidazol-2-yl)-2-(4-methoxyphenyl)ethyl)-3-(1,3-dimethyl-1H-pyrazol-5-yl)urea], the concentration giving a half-maximal response (EC50) worked out at 89 nM.

For `O=C(NC(Cc1ccc(C(F)(F)F)c(F)c1)c1nc2ccccc2[nH]1)NC12CCC(O)(CC1)CC2` (centres unmarked) [Example 238, 1-(1-(1H-Benzo[d]imidazol-2-yl)-2-(3-fluoro-4-(trifluoromethyl)phenyl)ethyl)-3-(4-hydroxybicyclo[2.2.2]octan-1-yl)urea], the EC50 turned out to be 36 nM.

As to `COc1ccc(CC(NC(=O)NCCc2c(C)noc2C)c2nc3ccccc3[nH]2)cc1` (centres unmarked) [Example 42, 1-(1-(1H-Benzo[d]imidazol-2-yl)-2-(4-methoxyphenyl)ethyl)-3-(2-(3,5-dimethylisoxazol-4-yl)ethyl)urea], the EC50 is 814 nM.

Consider `COc1ccc(CC(NC(=O)NC23CCC(O)(CC2)CC3)c2nc3ccccc3[nH]2)c(F)c1F` (centres unmarked) [Example 251, 1-(1-(1H-Benzo[d]imidazol-2-yl)-2-(2,3-difluoro-4-methoxyphenyl)ethyl)-3-(4-hydroxybicyclo[2.2.2]octan-1-yl)urea], for which the EC50 came to 6.6 nM.

With `COc1ccc(C[C@@H](NC(=O)NCCc2ccccc2Cl)c2nc3ccccc3[nH]2)cc1` [Example 56, (R)-1-(1-(1H-Benzo[d]imidazol-2-yl)-2-(4-methoxyphenyl)ethyl)-3-(2-chlorophenethyl)urea hydrochloride], the EC50 came out at 109 nM.

Take `COc1ccc(C[C@@H](NC(=O)NCCc2ccc(Cl)cc2)c2nc3ccccc3[nH]2)cc1` [Example 302, (R)-1-(1-(1H-Benzo[d]imidazol-2-yl)-2-(4-methoxyphenyl)ethyl)-3-(4-chlorophenethyl)urea]: the EC50 worked out at 129 nM.

With `COc1ccc(C[C@@H](NC(=O)NCCc2ccccc2C)c2nc3ccccc3[nH]2)cc1` [Example 63, (R)-1-(1-(1H-Benzo[d]imidazol-2-yl)-2-(4-methoxyphenyl)ethyl)-3-(2-methylphenethyl)urea hydrochloride], the EC50 amounted to 105 nM.

With `COc1cc(F)c(CC(NC(=O)N[C@H]2CC[C@H](O)CC2)c2nc3ccccc3[nH]2)cc1F` (relative stereo) [Example 247, 1-(1-(1H-Benzo[d]imidazol-2-yl)-2-(2,5-difluoro-4-methoxyphenyl)ethyl)-3-(trans-4-hydroxycyclohexyl)urea], the EC50 is 10 nM.

`COc1ccc(CC(NC(=O)NC23CCC(O)(CC2)CC3)c2nc3ccc(F)cc3[nH]2)c(F)c1` (centres unmarked) [Example 245, 1-(1-(6-Fluoro-1H-benzo[d]imidazol-2-yl)-2-(2-fluoro-4-methoxyphenyl)ethyl)-3-(4-hydroxybicyclo[2.2.2]octan-1-yl)urea]: the EC50 came out at 4.1 nM.

Consider `COc1ccc(C[C@@H](NC(=O)N[C@H]2CCNC[C@@H]2F)c2nc3ccccc3[nH]2)cc1` (relative stereo) [Example 165, 1-((R)-1-(1H-Benzo[d]imidazol-2-yl)-2-(4-methoxyphenyl)ethyl)-3-((3S*,4S*)-3-fluoropiperidin-4-yl)urea], for which the EC50 worked out at 27 nM.

As for `COc1ccc(C[C@H](NC(=O)NC2CC(C)(C)NC(C)(C)C2)c2nc3ccccc3[nH]2)cc1` [Example 397, (S)-1-(1-(1H-benzo[d]imidazol-2-yl)-2-(4-methoxyphenyl)ethyl)-3-(2,2,6,6-tetramethylpiperidin-4-yl)urea], the EC50 stood at 808 nM.

Turning to `COc1ccc(CC(NC(=O)Nc2cc(C3CC3)nn2-c2ccccc2)c2nc3ccccc3[nH]2)cc1` (centres unmarked) [Example 405, 1-(1-(1H-benzo[d]imidazol-2-yl)-2-(4-methoxyphenyl)ethyl)-3-(3-cyclopropyl-1-phenyl-1H-pyrazol-5-yl)urea], the EC50 turned out to be 32 nM.

`COc1ccc(C[C@@H](NC(=O)N[C@@H]2CCCC[C@@H]2O)c2nc3ccccc3[nH]2)cc1` (relative stereo) [Example 145, 1-((R)-1-(1H-Benzo[d]imidazol-2-yl)-2-(4-methoxyphenyl)ethyl)-3-((1R*,2S*)-2-hydroxycyclohexyl)urea]: the EC50 came to 62 nM.

`COc1ccc(CC(NC(=O)N[C@H]2CC[C@H](O)CC2)c2nc3ccncc3[nH]2)cc1` (relative stereo) [Example 428, 1-(1-(3H-imidazo[4,5-c]pyridin-2-yl)-2-(4-methoxyphenyl)ethyl)-3-(trans-4-hydroxycyclohexyl)urea]: the EC50 amounted to 299 nM.

Take `CCOCc1ccccc1CNC(=O)NC(Cc1ccc(OC)cc1)c1nc2ccccc2[nH]1` (centres unmarked) [Example 50, 1-(1-(1H-Benzo[d]imidazol-2-yl)-2-(4-methoxyphenyl)ethyl)-3-(2-(ethoxymethyl)benzyl)urea]: the EC50 was found to be 136 nM.

Regarding `COc1ccc(C[C@@H](NC(=O)NCc2ccccc2OCC(F)(F)F)c2nc3ccccc3[nH]2)cc1` [Example 219, (R)-1-(1-(1H-Benzo[d]imidazol-2-yl)-2-(4-methoxyphenyl)ethyl)-3-(2-(2,2,2-trifluoroethoxy)benzyl)urea], the EC50 worked out at 14 nM.

As to `COc1ccc(C[C@@H](NC(=O)N[C@H]2CC[C@H](O)CC2)c2nc3ccc(Cl)cc3[nH]2)cc1` [Example 36, 1-((R)-1-(6-Chloro-1H-benzo[d]imidazol-2-yl)-2-(4-methoxyphenyl)ethyl)-3-(trans-4-hydroxycyclohexyl)urea], the EC50 was determined as 1 nM.

As for `COc1ccc(C[C@@H](NC(=O)NC2CCN(C(C)C)CC2)c2nc3ccccc3[nH]2)cc1` [Example 101, (R)-1-(1-(1H-Benzo[d]imidazol-2-yl)-2-(4-methoxyphenyl)ethyl)-3-(1-isopropylpiperidin-4-yl)urea], the EC50 is 113 nM.
